Experimental data as given in article PMC12040169 (PLOS Biology, 2025).
Converted amounts (≈) assume the structure as drawn.

Assays:
C. albicans = test system: T1, C. albicans; assay: microbe, parasite or virus in culture; set-up: Microbial growth in liquid dilution assay, OD600 relative to DMSO control; details: Candida albicans, read-out: C. albicans, IC50 (µM) estimate
T1 construct: DSM 1577

[1] = test system: T2, CTL2-GFP (C. trachomatis L2/434/Bu, GFP-expressing); assay: microbe, parasite or virus in culture; set-up: species or system HeLa; C. trachomatis growth in HeLa, dose-response, mean of bulk GFP fluorescence and imaged total inclusion area; details: Chlamydia trachomatis, 28.5 h; mean of GFP and inclusion area
T2 construct: L2/434/Bu, GFP-expressing
Method in brief: (§1)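 First, bulk GFP and resorufin signals were measured in compound-treated infected cultures. Cells were next fixed and stained with Hoechst. Finally, high-content imaging quantified chlamydial inclusions (area, number) and host nuclei, and MICs were calculated.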

L. crispatus = test system: T3, L. crispatus; assay: microbe, parasite or virus in culture; set-up: Microbial growth in liquid dilution assay, OD600 relative to DMSO control; details: Lactobacillus crispatus; estimated IC50; read-out: L. crispatus, IC50 (µM) estimate
T3 construct: DSM 20584

G. vaginalis = test system: T4, G. vaginalis; assay: microbe, parasite or virus in culture; set-up: Microbial growth in liquid dilution assay, OD600 relative to DMSO control; details: Gardnerella vaginalis, read-out: G. vaginalis, IC50 (µM) estimate
T4 construct: DSM 4944

in vitro = assay: in vitro; set-up: Viability of infected HeLa host cells, resazurin conversion, bulk resorufin fluorescence relative to DMSO; details: human, hela cells; bulk resorufin, mean of 3
[2] = test system: T2, CTL2-GFP (C. trachomatis L2/434/Bu, GFP-expressing); assay: microbe, parasite or virus in culture; set-up: C. trachomatis growth in HeLa, dose-response, mean of bulk GFP fluorescence and imaged total inclusion area; details: Chlamydia trachomatis, HeLa, 28.5 h; mean of GFP and inclusion area
Method in brief: as §1

L. iners = test system: T5, L. iners; assay: organism not typed; set-up: Microbial growth in liquid dilution assay, OD600 relative to DMSO control; details: estimated IC50; read-out: L. iners, IC50 (µM) estimate
T5 construct: DSM 13335

E. faecalis = test system: T6, E. faecalis; assay: microbe, parasite or virus in culture; set-up: Microbial growth in liquid dilution assay, OD600 relative to DMSO control; details: Enterococcus faecalis; estimated IC50; read-out: E. faecalis, IC50 (µM) estimate
T6 construct: DSM 20478
Description: (§2) Compound effects on commensal microbes in dilution assay As our objective was to discover compounds that inhibit Chlamydia selectively but spare commensal bacteria, we further tested 15 of our top compounds (c1e–c10e and c1v–c5v) against five bacterial species, Escherichia coli, Lactobacillus reuteri, Enterococcus faecalis, Bacteroides thetaiotaomicron, and Bifidobacterium adolescentis, representing the four dominating phyla of the human gut microbiota. […] Exceptions were c3e and c5e, which at 30 µM were inhibitory to some species. […] Of note, c1e–c3e had little or no effect on the growth of an even larger set of species of gut bacteria, also including Blautia coccoides, Prevotella copri, Prevotella histicola, Bacteroides fragilis, and Dubosiella newyorkensis, when tested in radial diffusion assays, in which the bacteria were exposed to compounds for 24–48 h before measurements of growth inhibition zones (S10B Fig and S5G Data).

L. reuteri = test system: T7, L. reuteri; assay: microbe, parasite or virus in culture; set-up: Microbial growth in liquid dilution assay, OD600 relative to DMSO control; details: Limosilactobacillus reuteri; estimated IC50; read-out: L. reuteri, IC50 (µM) estimate
T7 construct: DSM 20016
Description: as §2

B. thetaiotaomicron = test system: T8, B. thetaiotaomicron; assay: microbe, parasite or virus in culture; set-up: Microbial growth in liquid dilution assay, OD600 relative to DMSO control; details: Bacteroides thetaiotaomicron; estimated IC50; read-out: B. thetaiotaomicron, IC50 (µM) estimate
T8 construct: DSM 2079
Description: as §2

B. adolescentis = test system: T9, B. adolescentis; assay: microbe, parasite or virus in culture; set-up: Microbial growth in liquid dilution assay, OD600 relative to DMSO control; details: Bifidobacterium adolescentis; estimated IC50; read-out: B. adolescentis, IC50 (µM) estimate
T9 construct: DSM 20083
Description: as §2

E. coli = test system: T10, E. coli; assay: microbe, parasite or virus in culture; set-up: Microbial growth in liquid dilution assay, OD600 relative to DMSO control; details: Escherichia coli; estimated IC50; read-out: E. coli, IC50 (µM) estimate
T10 construct: DSM 301
Description: as §2

[3] = test system: T2, CTL2-GFP (C. trachomatis L2/434/Bu, GFP-expressing); assay: microbe, parasite or virus in culture; set-up: species or system HeLa; Intracellular C. trachomatis growth in HeLa cells, bulk GFP fluorescence relative to DMSO; details: Chlamydia trachomatis, 28.5 h; bulk GFP
Description: (§3) MICs were calculated as described above.

[4] = test system: T2, CTL2-GFP (C. trachomatis L2/434/Bu, GFP-expressing); assay: microbe, parasite or virus in culture; set-up: Intracellular C. trachomatis growth in HeLa cells, bulk GFP fluorescence relative to DMSO; details: Chlamydia trachomatis, HeLa, 28.5 h; bulk GFP
Description: as §3

## O=C(CC1CCN(CCc2ccccc2)CC1)Nc1cccc(-n2cccn2)c1 [c4e]
C. albicans
  IC50: > 30 µM
[1]
  MIC: 1.56 µM (≈ 0.605 µg/mL)
L. crispatus
  IC50: > 30 µM
G. vaginalis
  IC50: > 30 µM
In vitro
  viability at 28.5 h, 0.000416667 µM: 92.2%
  viability at 28.5 h, 0.00125 µM: 95.9%
  viability at 28.5 h, 0.00375 µM: 89.2%
  viability at 28.5 h, 0.0123333 µM: 92.7%
  viability at 28.5 h, 0.037 µM: 90.6%
  viability at 28.5 h, 0.111 µM: 94.2%
  viability at 28.5 h, 0.333 µM: 86.2%
  viability at 28.5 h, 1 µM: 89.9%
  viability at 28.5 h, 3 µM: 82.9%
  viability at 28.5 h, 10 µM: 88.5%
  viability at 28.5 h, 30 µM: 87.2%
[2]
  IC50: 0.332 µM
L. iners
  IC50: > 30 µM
E. faecalis
  IC50: > 30 µM
L. reuteri
  IC50: > 30 µM
B. thetaiotaomicron
  IC50: > 30 µM
B. adolescentis
  IC50: > 30 µM
E. coli
  IC50: > 30 µM

## COc1c(Br)cc2c(cc(C)n2-c2ccccc2)c1OCC(O)CNC(C)C (stereo not shown) [c5e]
[1]
  MIC: 0.767 µM (≈ 0.343 µg/mL)
In vitro
  viability at 28.5 h, 0.000416667 µM: 87.7%
  viability at 28.5 h, 0.00125 µM: 89.3%
  viability at 28.5 h, 0.00375 µM: 86.3%
  viability at 28.5 h, 0.0123333 µM: 90.9%
  viability at 28.5 h, 0.037 µM: 88.9%
  viability at 28.5 h, 0.111 µM: 91.6%
  viability at 28.5 h, 0.333 µM: 87.6%
  viability at 28.5 h, 1 µM: 92.4%
  viability at 28.5 h, 3 µM: 89.5%
  viability at 28.5 h, 10 µM: 97%
  viability at 28.5 h, 30 µM: 0%
[2]
  IC50: 0.375 µM
E. faecalis
  IC50: > 30 µM
L. reuteri
  IC50: > 30 µM
B. thetaiotaomicron
  IC50: > 30 µM
B. adolescentis
  IC50: 10.3 µM
E. coli
  IC50: > 30 µM

## O=C(N/N=C/c1ccc(Sc2cccc3cccnc23)o1)c1cccc(F)c1 [c10e]
[1]
  MIC: 5.57 µM (≈ 2.18 µg/mL)
In vitro
  viability at 28.5 h, 0.000416667 µM: 84.5%
  viability at 28.5 h, 0.00125 µM: 93.8%
  viability at 28.5 h, 0.00375 µM: 84.5%
  viability at 28.5 h, 0.0123333 µM: 91.6%
  viability at 28.5 h, 0.037 µM: 82.9%
  viability at 28.5 h, 0.111 µM: 92.9%
  viability at 28.5 h, 0.333 µM: 88%
  viability at 28.5 h, 1 µM: 94.1%
  viability at 28.5 h, 3 µM: 89.3%
  viability at 28.5 h, 10 µM: 89.9%
  viability at 28.5 h, 30 µM: 81.1%
[2]
  IC50: 0.828 µM
E. faecalis
  IC50: > 30 µM
L. reuteri
  IC50: > 30 µM
B. thetaiotaomicron
  IC50: > 30 µM
B. adolescentis
  IC50: > 30 µM
E. coli
  IC50: > 30 µM

## Cc1ccc(C(=O)/C=C/Nc2ccc(S(=O)(=O)Nc3onc(C)c3C)cc2)cc1 [c4v]
[3]
  MIC: 1.88 µM (≈ 0.775 µg/mL)
[4]
  IC50: 1.32 µM
E. faecalis
  IC50: > 30 µM
L. reuteri
  IC50: > 30 µM
B. thetaiotaomicron
  IC50: > 30 µM
B. adolescentis
  IC50: > 30 µM
E. coli
  IC50: > 30 µM

## CCc1nnc(NS(=O)(=O)c2ccc(NC(=O)COc3ccc4ccccc4c3)cc2)s1 [c5v]
[3]
  MIC: 2.24 µM (≈ 1.05 µg/mL)
[4]
  IC50: 1.43 µM
E. faecalis
  IC50: > 30 µM
L. reuteri
  IC50: > 30 µM
B. thetaiotaomicron
  IC50: > 30 µM
B. adolescentis
  IC50: > 30 µM
E. coli
  IC50: > 30 µM

## O=C(Nc1ccc(F)c(F)c1)NC1CCC2CN(CCOc3ccccc3)CC2C1 (stereo not shown) [c9e]
[1]
  MIC: 2.63 µM (≈ 1.09 µg/mL)
In vitro
  viability at 28.5 h, 0.000416667 µM: 90.2%
  viability at 28.5 h, 0.00125 µM: 92.6%
  viability at 28.5 h, 0.00375 µM: 90.8%
  viability at 28.5 h, 0.0123333 µM: 91.5%
  viability at 28.5 h, 0.037 µM: 89%
  viability at 28.5 h, 0.111 µM: 92%
  viability at 28.5 h, 0.333 µM: 91.6%
  viability at 28.5 h, 1 µM: 94.6%
  viability at 28.5 h, 3 µM: 92.9%
  viability at 28.5 h, 10 µM: 95.3%
  viability at 28.5 h, 30 µM: 102%
[2]
  IC50: 0.641 µM
E. faecalis
  IC50: > 30 µM
L. reuteri
  IC50: > 30 µM
B. thetaiotaomicron
  IC50: > 30 µM
B. adolescentis
  IC50: > 30 µM
E. coli
  IC50: > 30 µM

## CNC(=S)N1CCN(c2nsc3ccccc23)CC1 [c6e]
[1]
  MIC: 0.771 µM (≈ 0.225 µg/mL)
In vitro
  viability at 28.5 h, 0.000416667 µM: 103%
  viability at 28.5 h, 0.00125 µM: 100%
  viability at 28.5 h, 0.00375 µM: 99.1%
  viability at 28.5 h, 0.0123333 µM: 101%
  viability at 28.5 h, 0.037 µM: 97.3%
  viability at 28.5 h, 0.111 µM: 105%
  viability at 28.5 h, 0.333 µM: 101%
  viability at 28.5 h, 1 µM: 108%
  viability at 28.5 h, 3 µM: 103%
  viability at 28.5 h, 10 µM: 102%
  viability at 28.5 h, 30 µM: 76%
[2]
  IC50: 0.413 µM
E. faecalis
  IC50: > 30 µM
L. reuteri
  IC50: > 30 µM
B. thetaiotaomicron
  IC50: > 30 µM
B. adolescentis
  IC50: > 30 µM
E. coli
  IC50: > 30 µM

## Cc1cc(NS(=O)(=O)c2ccc(NC(=O)COc3ccc(Cl)c(C)c3)cc2)no1 [c3v]
[3]
  MIC: 0.829 µM (≈ 0.361 µg/mL)
[4]
  IC50: 0.773 µM
E. faecalis
  IC50: > 30 µM
L. reuteri
  IC50: > 30 µM
B. thetaiotaomicron
  IC50: > 30 µM
B. adolescentis
  IC50: > 30 µM
E. coli
  IC50: > 30 µM

## N#Cc1c(Nc2cccc(C(F)(F)F)c2)sc(C(=O)c2ccc3c(c2)OCO3)c1N [c8e]
[1]
  MIC: 0.936 µM (≈ 0.404 µg/mL)
In vitro
  viability at 28.5 h, 0.000416667 µM: 88%
  viability at 28.5 h, 0.00125 µM: 94.7%
  viability at 28.5 h, 0.00375 µM: 88.4%
  viability at 28.5 h, 0.0123333 µM: 85.7%
  viability at 28.5 h, 0.037 µM: 86%
  viability at 28.5 h, 0.111 µM: 87.3%
  viability at 28.5 h, 0.333 µM: 85.7%
  viability at 28.5 h, 1 µM: 94.3%
  viability at 28.5 h, 3 µM: 81.6%
  viability at 28.5 h, 10 µM: 77.1%
  viability at 28.5 h, 30 µM: 62.5%
[2]
  IC50: 0.567 µM
E. faecalis
  IC50: > 30 µM
L. reuteri
  IC50: > 30 µM
B. thetaiotaomicron
  IC50: > 30 µM
B. adolescentis
  IC50: > 30 µM
E. coli
  IC50: > 30 µM
